Where two headings read alike, the source gives them in different places.
Legend:
[1] = test system: third stage H. contortus larvae; test: Survival and L3 to L4 moulting of third stage larvae; assay type: in vivo, Haemonchus contortus
Experimental: Third stage H. contortus larvae were exposed to varying concentrations of 5,5′-dimethyl-2,2′-dipyridyl and the effects on moulting from L3 to L4 examined. The larvae were either exsheathed (their L2 sheath was removed chemically) or unexsheathed (their L2 sheaths were intact). The larvae were exposed to varying concentrations of 5,5′-dimethyl-2,2′-dipyridyl added to their culture media of DMEM and the effects on larval survival monitored over time. Following a 30 minute incubation at 37° C., greater than 90% of the exsheathed larvae exposed to 1 and 0.5 mM of the compound appeared dead. […] By day six post exposure greater than 90% of the larvae appeared to have died in the treatment groups while the control larvae appeared healthy.

head lice egg = test: Head lice egg hatching, time course; assay type: in vivo, Pediculus humanus capitus; conditions: 10 mM; for inhibition at 10000 µM: Pediculus humanus, 10 minutes, read-out: Percent inhibition of egg hatching relative to the control
Experimental: Tests were carried out to determine if metal chelating agent and metalloprotease inhibitor 1,10-phenanthroline could inhibit head lice egg (Pediculus humanus capitus) hatching as opposed to body lice. Head lice eggs were obtained by placing groups of both 1-2 adult male and 6-8 adult female head lice in separate wells in a 24 well petri dish containing cotton cloth. The petri dish was transferred to a humid incubator at 32° C., 70% RH for 12 hours to permit the female lice to lay their eggs. After 12 hours, all adult lice were removed from the petri dish wells and a series of time-course experiments conducted. A group of eggs (24 hr old) was treated for 10 minutes with 200 μL of a 10 mM solution of 1,10-phenanthroline. A control (ie no inhibitor treatment) group of eggs was also included. The eggs were removed from the inhibitor, blotted dry on tissue paper, placed at 32° C., 70% RH and left to hatch. A second group of eggs, (48 hours old) were treated as previously described and also left to hatch. This process was repeated at 24 hour intervals on head lice eggs up to 120 hours post laying. This method of assaying inhibitors more closely mirrors the field situation where lice eggs will be at various stages of development on the head and permits the inhibitory effects to be observed on these different stages of the parasite.

[2] = test system: proteases in egg shell washings (ESW) of lice eggs; test: Gelatin substrate SDS-PAGE of lice egg shell washings (ESW) incubated with protease inhibitors; assay type: biochemical, Pediculus humanus humanus
Experimental: Within 12 hours of hatching 50 body lice eggs (Pediculus humanus humanus) were removed from the hair and placed in a 1 mL eppendorf tube. 20 μL of distilled water was added to the unhatched eggs and the preparation incubated for 30 minutes at 32° C. The 20 μL was recovered, freeze dried and stored at −70° C. This sample was referred to as sample 1. A number of other samples were also collected as described. Sample 2 was collected by removing the unhatched louse eggs from four hairs that were approximately 3 cm long, cutting the hair into 0.5 cm lengths, and placing them into a microfuge tube containing 20 μl of distilled water and incubating at 32° C. for 30 minutes. Sample 3 was collected as for sample 2, but the hair was placed in a tube containing 10 mL of 1% sodium hypochlorite for 1 minute followed by five 1 minute washes in 25 mL of distilled water to remove the sodium hypochlorite before being incubated in a microfuge tube containing 20 μl of distilled water and incubated as for Sample 2. Sample 4 was collected from unhatched eggs which were removed from the hair and washed with 1% sodium hypochlorite and incubated in 20 μl of distilled water in the same manner as the hair in Sample 3. Finally, Sample 5 was collected from eggs that were within 24 hrs of hatching which were washed with 1% sodium hypochlorite, then returned to the incubator at 32° C. until they hatched, the empty egg shells collected 0-2 hrs after egg-hatching, placed in a 1 mL microfuge tube containing 20 μl of distilled water and incubated as for Samples 1-4. For all samples 1-5 the 20 μl of fluid was recovered, freeze-dried and stored at −70° C. The washings recovered from these freshly hatched egg shells are referred to as egg-shell-washings (ESWs). In order to look for the presence of proteases present in these different samples, the freeze-dried samples were resuspended in 15 μL of non-reducing SDS sample buffer, centrifuged at 10,000 g for 2 minutes and the entire 15 μL loaded on to 10% gelatine substrate SDS-PAGE gels. Gels were run at 4° C. for 10 minutes at 10 mA followed by a further 25 minutes at 15 mA per gel. They were then incubated for 2×20 minutes in a 2.5% Triton-X 100 solution followed by a three hour incubation in 0.1M Tris/HCl containing 1 mM CaCl2 pH 8.0. Activity was detected as clear areas on the gel the result of protease activity degrading the gelatine within the gel.
Protease activity in the ESWs from louse eggs was also examined using two-dimensional gel electrophoresis. It was necessary to collect large numbers of freshly hatched egg shells. Following egglaying onto pieces of cloth, adult female lice were removed and the cloth with the eggs washed with 1% sodium hypochlorite as for collection of ESWs. The eggs were then returned to the incubator and permitted to hatch. Typically 100 to 500 hatched egg shells were collected (0-2 hours post hatching), placed in a microfuge tube containing 200 μl of distilled water, incubated and sample treated as described above. For analysis, ESWs were resuspended in rehydration buffer (8 M Urea, 2% 3-[(3-cholamidopropyl) dimethylammonio]-1-propanesulfonate 2% Immobilised pH gradient buffer 3-10 (Amersham Phamacia Biotech, Uppsala, Sweden)) and used to rehydrate 7 cm Immobiline Dry strips pH 3-10 (Amersham Bioscience) overnight. Strips were transferred to the Multiphor II (Pharmacia, Sweden) apparatus, electrophoresed in the first dimension at 200 V for 1 min, increasing to 3,500 V over the next 90 min followed by 65 min at 3,500 V, equilibrated (6 M urea, 30% glycerol, 50 mM Tris pH 8.8 and 2% SDS) and then run on a 10% SDS-PAGE gel containing 0.1% gelatin for the second dimension. The gel was then run and developed as previously described.
10% SDS-PAGE gelatine substrate gels were loaded with freeze dried egg shell washings from 100 lice eggs that had been resuspended in 50 μL of non-reducing sample buffer with samples run at 10 μL per lane. […]

Row | SMILES | appearance of unexsheathed larvae ([1]; 10 μM, up to 6 days post exposure) | exsheathed larvae that appeared dead ([1]; 1 and 0.5 mM in DMEM, 30 minute incubation at 37° C.) | unexsheathed larvae that appeared to have died ([1]; day six post exposure, treatment groups) | effects on unexsheathed larvae compared to control larvae ([1]; up to 3 days post exposure) | inhibition of egg hatching in head lice (head lice egg) | inhibition at 10000 µM (head lice egg; treated day 1 post laying) [%] | inhibition at 10000 µM (head lice egg; treated day 2 post laying) [%] | inhibition at 10000 µM (head lice egg; treated day 3 post laying) [%] | inhibition at 10000 µM (head lice egg; treated day 4 post laying) [%] | inhibition at 10000 µM (head lice egg; treated day 5 post laying) [%] | protease activity of ESW, two dimensional gel electrophoresis ([2]; gel incubated with 10 mM inhibitor) | protease activity of ESW on gelatin SDS-PAGE compared to untreated controls ([2]; gel strips incubated with inhibitor: PMSF 5 mM, 1,10-phenanthroline 10 mM, EDTA 10 mM, pepstatin 5 μM, E-64 10 μM)
1 | Cc1ccc(-c2ccc(C)cn2)nc1 [5,5′-dimethyl-2,2′-dipyridyl] | larvae appeared normal | greater than 90% | greater than 90% | no adverse effects were observed | – | – | – | – | – | – | – | –
2 | c1cnc2c(c1)ccc1cccnc12 [1,10-phenanthroline, reference compound] | – | – | – | – | significantly inhibit egg hatching in head lice | 100 | 87 | 88 | 100 | 100 | general reduction in protease activity in the 25-30 kDa region and a clear reduction in the proteases present around the 50 kDa region and above 75 kDa | reduction in protease activity
